Test [1] addresses T1, FAM86A (Homo sapiens, UniProt Q96G04, I256Y/M257Y/E296Y).
T1 construct: gene EEF2KMT; full-length, surface-entropy-reduction triple mutant; N-terminal His6-MBP tag removed by TEV; E. coli BL21(DE3) RIL; residues 1-5 and 127-133 not traced
T1 sequence (Q96G04 1-330 I256Y/M257Y/E296Y): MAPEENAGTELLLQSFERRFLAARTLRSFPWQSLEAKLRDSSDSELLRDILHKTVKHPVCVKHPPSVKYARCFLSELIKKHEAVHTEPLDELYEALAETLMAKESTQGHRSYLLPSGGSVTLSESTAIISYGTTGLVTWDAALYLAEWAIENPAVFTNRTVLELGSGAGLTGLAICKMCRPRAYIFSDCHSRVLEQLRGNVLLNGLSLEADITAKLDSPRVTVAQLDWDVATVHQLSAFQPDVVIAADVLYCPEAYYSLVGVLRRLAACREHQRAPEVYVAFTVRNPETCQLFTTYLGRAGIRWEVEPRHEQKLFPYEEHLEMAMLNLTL
The test can be described thus: X-ray crystal structure, […] A. The note with it: co-crystallised with 1 mM SAH, ammonium citrate pH 7.0, PEG 3350, 5 mM TCEP, 12 C; SAM-binding site of MTase domain.

Test [2] has as its target T2, FAM86A (Homo sapiens, UniProt Q96G04, A97R).
T2 construct: gene EEF2KMT; full-length; E. coli BL21
T2 sequence (Q96G04 1-330 A97R): T1 sequence (Q96G04 1-330 I256Y/M257Y/E296Y) with A97R, Y256I, Y257M, Y296E
The experiment in a line: in vitro methylation, autoradiography. In kind it is biochemical. The following applies: labelled compound; methyl donor; co-substrate recombinant human EEF2 (Lys525); Tris-HCl pH 8.0, 20 mM KCl, 5 mM MgCl2, 10% glycerol, 30 C overnight.

The target of test [3] is T3, FAM86A (Homo sapiens, UniProt Q96G04).
T3 construct: gene EEF2KMT; full-length; E. coli BL21
T3 sequence (Q96G04 1-330): T1 sequence (Q96G04 1-330 I256Y/M257Y/E296Y) with Y256I, Y257M, Y296E
The test can be described thus: in vitro methylation, autoradiography. In kind it is biochemical. The note with it: labelled compound; methyl donor; co-substrate recombinant human EEF2 (Lys525); Tris-HCl pH 8.0, 20 mM KCl, 5 mM MgCl2, 10% glycerol, 30 C overnight. The method, then: in vitro methylation, autoradiography on FA[…] | incubating recombinant, purified FA[…] with recombinant, purified EEF2 in the presence of radiolabeled SAM

Numbering of substitutions follows the chain as printed.

On to `Nc1ncnc2c1ncn2[C@@H]1O[C@H](CSCC[C@H](N)C(=O)O)[C@@H](O)[C@H]1O` [SAH, S-adenosyl homocysteine], for which the “X-ray crystal structure, 3.3 A” value on FAM86A [1] is “structure determination of full-length FAM86A in complex with cofactor–by-product S-adenosyl homocysteine (SAH)”. Take `C[S+](CC[C@H](N)C(=O)O)C[C@H]1O[C@@H](n2cnc3c(N)ncnc32)[C@H](O)[C@@H]1O` (stereo partly drawn) [SAM, S-adenosyl methionine]: the “in vitro methylation, autoradiography” value on FAM86A [2] is given as “the activity of purified FAM86A (A97R) on purified EEF2 was similar to that of wildtype”; on FAM86A [3], “incubating recombinant, purified FAM86A with recombinant, purified EEF2 in the presence of radiolabeled SAM”.

Source of the values: PMC10285254, “The FAM86 domain of FAM86A confers substrate specificity to promote EEF2-Lys525 methylation” (The Journal of Biological Chemistry, 2023).
